Measurements: paper PMC3933419, “Synthesis and Properties of a Selective Inhibitor of Homeodomain–Interacting Protein Kinase 2 (HIPK2)” (PLoS ONE, 2014)
pIC50: −log10 of the molar value.

Assays:
CK1 = CK1 phosphorylation assay; format: biochemical, rat; conditions: 20 µM ATP
Protocol: Native CK2 and CK1 were purified from rat liver.
(§1) PIM1, CK2, CK1 phosphorylation assays were performed following similar procedures used for HIPK2 except that preincubation was omitted. In detail, PIM1 activity was determined at 100 µM ATP concentration and in the presence of 30 µM synthetic peptide substrate […]. CK2 and CK1 activities were assayed in a buffer containing 50 mM Tris/HCl (pH 7.5), 100 mM NaCl, 12 mM MgCl2, 100 µM specific peptide substrate […] (for CK2), or 200 µM […] (for CK1) and 20 µM [γ-^33P]ATP (500–1000 c.p.m./pmol).

PRAK = PRAK (Homo sapiens, UniProt Q8IW41); assay: Kinase panel selectivity profiling; format: biochemical; conditions: TBID 1 μM, 125 kinase panel, read-out: % activity of the enzyme
Text: (§2) The source of HIPK2 and of all of the other protein kinases used for specificity assays is as described elsewhere.
(§3) Conditions for the activity assays of all other protein kinases tested in selectivity experiments are as described or referenced in [9].

HIPK3 = HIPK3 (Homo sapiens, UniProt Q9H422); assay: Kinase panel selectivity profiling; format: biochemical; conditions: TBID 1 μM, 125 kinase panel, read-out: % activity of the enzyme
Text: as §2, §3

ROCK 2 = ROCK 2 (Homo sapiens, UniProt O75116); assay: Kinase panel selectivity profiling; format: biochemical; conditions: TBID 1 μM, 125 kinase panel, read-out: % activity of the enzyme
Text: as §2, §3

BRK = BRK (Homo sapiens, UniProt Q13882); assay: Kinase panel selectivity profiling; format: biochemical; conditions: TBID 1 μM, 125 kinase panel, read-out: % activity of the enzyme
Text: as §2, §3

ERK8 = ERK8 (Homo sapiens, UniProt Q8TD08); assay: Kinase panel selectivity profiling; format: biochemical; conditions: TBID 1 μM, 125 kinase panel, read-out: % activity of the enzyme
Text: as §2, §3

DYRK2 = DYRK2 (Homo sapiens, UniProt Q92630); assay: Kinase panel selectivity profiling; format: biochemical; conditions: TBID 1 μM, 125 kinase panel, read-out: % activity of the enzyme
Text: as §2, §3

MARK3 = MARK3 (Homo sapiens, UniProt P27448); assay: Kinase panel selectivity profiling; format: biochemical; conditions: TBID 1 μM, 125 kinase panel, read-out: % activity of the enzyme
Text: as §2, §3

PKA = PKA (Homo sapiens, UniProt P17612); assay: Kinase panel selectivity profiling; format: biochemical; conditions: TBID 1 μM, 125 kinase panel, read-out: % activity of the enzyme
Text: as §2, §3

MEKK1 = MEKK1 (Homo sapiens, UniProt Q13233); assay: Kinase panel selectivity profiling; format: biochemical; conditions: TBID 1 μM, 125 kinase panel, read-out: % activity of the enzyme
Text: as §2, §3

CHK2 = CHK2 (Homo sapiens, UniProt O96017); assay: Kinase panel selectivity profiling; format: biochemical; conditions: TBID 1 μM, 125 kinase panel, read-out: % activity of the enzyme
Text: as §2, §3

EPH-B4 = EPH-B4 (Homo sapiens, UniProt P54760); assay: Kinase panel selectivity profiling; format: biochemical; conditions: TBID 1 μM, 125 kinase panel, read-out: % activity of the enzyme
Text: as §2, §3

NEK2a = NEK2a (Homo sapiens, UniProt P51955); assay: Kinase panel selectivity profiling; format: biochemical; conditions: TBID 1 μM, 125 kinase panel, read-out: % activity of the enzyme
Text: as §2, §3

PAK4 = PAK4 (Homo sapiens, UniProt O96013); assay: Kinase panel selectivity profiling; format: biochemical; conditions: TBID 1 μM, 125 kinase panel, read-out: % activity of the enzyme
Text: as §2, §3

p38d MAPK = p38d MAPK (Homo sapiens, UniProt O15264); assay: Kinase panel selectivity profiling; format: biochemical; conditions: TBID 1 μM, 125 kinase panel, read-out: % activity of the enzyme
Text: as §2, §3

PKCγ = PKCγ (Homo sapiens, UniProt P05129); assay: Kinase panel selectivity profiling; format: biochemical; conditions: TBID 1 μM, 125 kinase panel, read-out: % activity of the enzyme
Text: as §2, §3

HIPK1 = HIPK1 (Homo sapiens, UniProt Q86Z02); assay: Kinase panel selectivity profiling; format: biochemical; conditions: TBID 1 μM, 125 kinase panel, read-out: % activity of the enzyme
Text: as §2, §3

TBK1 = TBK1 (Homo sapiens, UniProt Q9UHD2); assay: Kinase panel selectivity profiling; format: biochemical; conditions: TBID 1 μM, 125 kinase panel, read-out: % activity of the enzyme
Text: as §2, §3

TESK1 = TESK1 (Homo sapiens, UniProt Q15569); assay: Kinase panel selectivity profiling; format: biochemical; conditions: TBID 1 μM, 125 kinase panel, read-out: % activity of the enzyme
Text: as §2, §3

JNK2 = JNK2 (Homo sapiens, UniProt P45984); assay: Kinase panel selectivity profiling; format: biochemical; conditions: TBID 1 μM, 125 kinase panel, read-out: % activity of the enzyme
Text: as §2, §3

RIPK2 = RIPK2 (Homo sapiens, UniProt O43353); assay: Kinase panel selectivity profiling; format: biochemical; conditions: TBID 1 μM, 125 kinase panel, read-out: % activity of the enzyme
Text: as §2, §3

MARK2 = MARK2 (Homo sapiens, UniProt Q7KZI7); assay: Kinase panel selectivity profiling; format: biochemical; conditions: TBID 1 μM, 125 kinase panel, read-out: % activity of the enzyme
Text: as §2, §3

MST2 = MST2 (Homo sapiens, UniProt Q13188); assay: Kinase panel selectivity profiling; format: biochemical; conditions: TBID 1 μM, 125 kinase panel, read-out: % activity of the enzyme
Text: as §2, §3

TAO1 = TAO1 (Homo sapiens, UniProt Q7L7X3); assay: Kinase panel selectivity profiling; format: biochemical; conditions: TBID 1 μM, 125 kinase panel, read-out: % activity of the enzyme
Text: as §2, §3

EPH-B1 = EPH-B1 (Homo sapiens, UniProt P54762); assay: Kinase panel selectivity profiling; format: biochemical; conditions: TBID 1 μM, 125 kinase panel, read-out: % activity of the enzyme
Text: as §2, §3

TAK1 = TAK1 (Homo sapiens, UniProt O43318); assay: Kinase panel selectivity profiling; format: biochemical; conditions: TBID 1 μM, 125 kinase panel, read-out: % activity of the enzyme
Text: as §2, §3

MAPKAP-K3 = MAPKAP-K3 (Homo sapiens, UniProt Q16644); assay: Kinase panel selectivity profiling; format: biochemical; conditions: TBID 1 μM, 125 kinase panel, read-out: % activity of the enzyme
Text: as §2, §3

MNK2 = MNK2 (Homo sapiens, UniProt Q9HBH9); assay: Kinase panel selectivity profiling; format: biochemical; conditions: TBID 1 μM, 125 kinase panel, read-out: % activity of the enzyme
Text: as §2, §3

BRSK2 = BRSK2 (Homo sapiens, UniProt Q8IWQ3); assay: Kinase panel selectivity profiling; format: biochemical; conditions: TBID 1 μM, 125 kinase panel, read-out: % activity of the enzyme
Text: as §2, §3

p38b MAPK = p38b MAPK (Homo sapiens, UniProt Q15759); assay: Kinase panel selectivity profiling; format: biochemical; conditions: TBID 1 μM, 125 kinase panel, read-out: % activity of the enzyme
Text: as §2, §3

TLK1 = TLK1 (Homo sapiens, UniProt Q9UKI8); assay: Kinase panel selectivity profiling; format: biochemical; conditions: TBID 1 μM, 125 kinase panel, read-out: % activity of the enzyme
Text: as §2, §3

Lck = Lck (Homo sapiens, UniProt P06239); assay: Kinase panel selectivity profiling; format: biochemical; conditions: TBID 1 μM, 125 kinase panel, read-out: % activity of the enzyme
Text: as §2, §3

PKBa = PKBa (Homo sapiens, UniProt P31749); assay: Kinase panel selectivity profiling; format: biochemical; conditions: TBID 1 μM, 125 kinase panel, read-out: % activity of the enzyme
Text: as §2, §3

SmMLCK = SmMLCK (Homo sapiens, UniProt Q15746); assay: Kinase panel selectivity profiling; format: biochemical; conditions: TBID 1 μM, 125 kinase panel, read-out: % activity of the enzyme
Text: as §2, §3

JNK3 = JNK3 (Homo sapiens, UniProt P53779); assay: Kinase panel selectivity profiling; format: biochemical; conditions: TBID 1 μM, 125 kinase panel, read-out: % activity of the enzyme
Text: as §2, §3

RSK2 = RSK2 (Homo sapiens, UniProt P51812); assay: Kinase panel selectivity profiling; format: biochemical; conditions: TBID 1 μM, 125 kinase panel, read-out: % activity of the enzyme
Text: as §2, §3

p38a MAPK = p38a MAPK (Homo sapiens, UniProt Q16539); assay: Kinase panel selectivity profiling; format: biochemical; conditions: TBID 1 μM, 125 kinase panel, read-out: % activity of the enzyme
Text: as §2, §3

PIM1 = molecular target: T1, PIM1 (Homo sapiens, UniProt P11309); assay: PIM1 phosphorylation assay; format: biochemical; conditions: 100 µM ATP
T1 construct: The source of HIPK2 and of all of the other protein kinases used for specificity assays is as described elsewhere
Protocol: as §1

Sequence of HIPK1 (Q86Z02 whole entry): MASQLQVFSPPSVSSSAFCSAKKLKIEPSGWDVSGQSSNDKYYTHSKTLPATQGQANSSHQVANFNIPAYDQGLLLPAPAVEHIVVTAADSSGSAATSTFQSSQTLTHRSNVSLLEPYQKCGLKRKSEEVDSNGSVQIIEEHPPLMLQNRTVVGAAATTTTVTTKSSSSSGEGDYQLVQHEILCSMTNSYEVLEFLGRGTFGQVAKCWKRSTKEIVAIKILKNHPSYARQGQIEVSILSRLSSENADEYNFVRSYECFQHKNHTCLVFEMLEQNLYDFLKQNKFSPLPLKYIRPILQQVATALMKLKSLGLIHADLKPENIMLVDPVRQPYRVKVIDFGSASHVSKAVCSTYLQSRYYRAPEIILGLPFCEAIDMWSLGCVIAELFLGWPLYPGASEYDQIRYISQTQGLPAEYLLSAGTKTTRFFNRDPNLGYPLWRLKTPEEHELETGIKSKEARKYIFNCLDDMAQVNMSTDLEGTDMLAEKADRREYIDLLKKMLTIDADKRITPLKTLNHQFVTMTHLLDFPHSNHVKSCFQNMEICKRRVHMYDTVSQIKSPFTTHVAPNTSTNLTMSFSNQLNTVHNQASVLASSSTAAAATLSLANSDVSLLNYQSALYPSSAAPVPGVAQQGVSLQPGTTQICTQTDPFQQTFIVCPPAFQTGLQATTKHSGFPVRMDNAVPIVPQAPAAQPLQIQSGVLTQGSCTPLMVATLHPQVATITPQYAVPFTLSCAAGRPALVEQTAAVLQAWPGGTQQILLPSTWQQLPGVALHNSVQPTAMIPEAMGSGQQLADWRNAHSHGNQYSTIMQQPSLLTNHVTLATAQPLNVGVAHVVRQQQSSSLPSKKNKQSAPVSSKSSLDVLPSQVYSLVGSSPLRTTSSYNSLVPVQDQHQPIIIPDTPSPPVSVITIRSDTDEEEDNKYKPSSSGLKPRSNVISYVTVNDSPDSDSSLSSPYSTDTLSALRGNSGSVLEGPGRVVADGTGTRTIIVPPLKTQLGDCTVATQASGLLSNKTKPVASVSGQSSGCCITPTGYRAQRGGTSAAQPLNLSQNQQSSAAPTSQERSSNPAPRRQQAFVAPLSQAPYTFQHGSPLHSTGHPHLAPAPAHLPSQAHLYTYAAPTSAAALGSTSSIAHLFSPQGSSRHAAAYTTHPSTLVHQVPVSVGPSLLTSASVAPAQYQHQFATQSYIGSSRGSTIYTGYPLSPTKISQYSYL
Sequence of BRSK2 (Q8IWQ3 whole entry): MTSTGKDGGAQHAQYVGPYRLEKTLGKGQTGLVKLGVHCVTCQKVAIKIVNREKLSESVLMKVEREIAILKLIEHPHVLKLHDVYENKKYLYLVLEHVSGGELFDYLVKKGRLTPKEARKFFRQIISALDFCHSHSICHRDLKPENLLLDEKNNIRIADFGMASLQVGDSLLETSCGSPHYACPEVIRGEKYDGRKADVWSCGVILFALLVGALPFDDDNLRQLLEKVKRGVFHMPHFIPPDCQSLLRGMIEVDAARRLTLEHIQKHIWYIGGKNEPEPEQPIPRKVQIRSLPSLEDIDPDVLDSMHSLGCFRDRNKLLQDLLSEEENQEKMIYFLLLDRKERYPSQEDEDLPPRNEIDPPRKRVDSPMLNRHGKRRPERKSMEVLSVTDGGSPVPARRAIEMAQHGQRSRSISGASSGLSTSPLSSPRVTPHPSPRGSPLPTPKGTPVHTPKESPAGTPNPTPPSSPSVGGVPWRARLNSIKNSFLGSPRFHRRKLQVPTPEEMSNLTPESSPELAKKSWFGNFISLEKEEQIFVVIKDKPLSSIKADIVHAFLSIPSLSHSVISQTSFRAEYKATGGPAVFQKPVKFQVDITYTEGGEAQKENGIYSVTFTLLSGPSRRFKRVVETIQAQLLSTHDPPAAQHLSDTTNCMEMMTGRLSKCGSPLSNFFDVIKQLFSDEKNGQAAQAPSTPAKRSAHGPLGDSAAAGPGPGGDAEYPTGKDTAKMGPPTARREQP
T1 sequence (P11309 whole entry, species assumed): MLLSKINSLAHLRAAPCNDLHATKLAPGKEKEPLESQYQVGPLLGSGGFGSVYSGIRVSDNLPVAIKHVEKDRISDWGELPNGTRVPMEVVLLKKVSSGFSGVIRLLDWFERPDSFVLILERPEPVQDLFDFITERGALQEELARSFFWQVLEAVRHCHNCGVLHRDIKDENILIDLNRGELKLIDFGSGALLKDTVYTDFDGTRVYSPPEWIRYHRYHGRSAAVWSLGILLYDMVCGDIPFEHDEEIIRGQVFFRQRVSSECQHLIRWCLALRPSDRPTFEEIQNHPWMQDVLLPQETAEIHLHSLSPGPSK
Sequence of MST2 (Q13188 whole entry): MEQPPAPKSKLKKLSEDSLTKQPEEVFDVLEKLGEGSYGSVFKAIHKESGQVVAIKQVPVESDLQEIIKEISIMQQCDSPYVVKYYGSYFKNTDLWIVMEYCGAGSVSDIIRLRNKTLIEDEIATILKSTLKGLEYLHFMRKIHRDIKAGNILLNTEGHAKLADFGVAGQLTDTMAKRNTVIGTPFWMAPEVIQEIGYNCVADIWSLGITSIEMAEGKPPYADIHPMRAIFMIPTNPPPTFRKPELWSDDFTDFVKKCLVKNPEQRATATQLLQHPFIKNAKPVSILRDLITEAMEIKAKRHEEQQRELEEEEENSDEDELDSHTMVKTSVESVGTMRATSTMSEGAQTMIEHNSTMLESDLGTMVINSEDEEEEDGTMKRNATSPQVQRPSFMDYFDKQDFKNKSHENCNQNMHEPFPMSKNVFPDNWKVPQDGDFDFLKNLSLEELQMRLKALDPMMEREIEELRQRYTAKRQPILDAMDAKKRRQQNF
Sequence of p38d MAPK (O15264 whole entry): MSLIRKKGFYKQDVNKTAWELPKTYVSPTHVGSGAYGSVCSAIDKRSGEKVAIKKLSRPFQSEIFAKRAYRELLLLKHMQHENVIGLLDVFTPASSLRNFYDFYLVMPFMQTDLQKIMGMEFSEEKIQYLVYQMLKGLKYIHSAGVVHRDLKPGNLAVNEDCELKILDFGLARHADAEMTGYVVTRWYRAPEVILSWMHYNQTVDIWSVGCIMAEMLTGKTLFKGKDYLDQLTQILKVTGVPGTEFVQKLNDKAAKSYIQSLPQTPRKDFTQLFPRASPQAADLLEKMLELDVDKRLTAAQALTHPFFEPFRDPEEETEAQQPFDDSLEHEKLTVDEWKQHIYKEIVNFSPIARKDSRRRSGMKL
Sequence of EPH-B4 (P54760 16-987): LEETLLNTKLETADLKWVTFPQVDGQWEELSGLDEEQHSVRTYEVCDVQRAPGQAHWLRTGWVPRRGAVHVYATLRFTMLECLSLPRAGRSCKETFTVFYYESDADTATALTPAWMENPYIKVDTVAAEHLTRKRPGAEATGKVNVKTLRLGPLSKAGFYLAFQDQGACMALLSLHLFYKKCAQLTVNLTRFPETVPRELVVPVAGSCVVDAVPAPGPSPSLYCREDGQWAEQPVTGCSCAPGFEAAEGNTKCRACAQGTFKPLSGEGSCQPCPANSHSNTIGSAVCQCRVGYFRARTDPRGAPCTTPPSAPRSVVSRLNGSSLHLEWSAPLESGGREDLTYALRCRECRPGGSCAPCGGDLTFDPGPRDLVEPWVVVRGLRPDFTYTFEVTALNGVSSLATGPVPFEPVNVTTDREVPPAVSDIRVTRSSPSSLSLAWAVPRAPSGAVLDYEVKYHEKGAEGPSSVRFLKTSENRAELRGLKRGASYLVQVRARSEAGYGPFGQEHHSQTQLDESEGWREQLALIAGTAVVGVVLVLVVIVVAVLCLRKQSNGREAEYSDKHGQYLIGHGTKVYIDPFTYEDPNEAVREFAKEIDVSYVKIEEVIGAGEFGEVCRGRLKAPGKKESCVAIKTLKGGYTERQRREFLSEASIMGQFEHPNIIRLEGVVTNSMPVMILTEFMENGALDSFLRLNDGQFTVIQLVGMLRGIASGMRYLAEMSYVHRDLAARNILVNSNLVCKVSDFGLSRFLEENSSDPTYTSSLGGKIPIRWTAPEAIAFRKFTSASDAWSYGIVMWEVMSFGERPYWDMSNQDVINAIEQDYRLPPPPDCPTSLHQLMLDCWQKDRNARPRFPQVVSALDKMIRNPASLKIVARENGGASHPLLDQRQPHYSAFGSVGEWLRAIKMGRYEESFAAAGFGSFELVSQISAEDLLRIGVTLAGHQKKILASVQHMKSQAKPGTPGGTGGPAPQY

## O=C1c2c(Br)c(Br)c(Br)c(Br)c2C(=O)N1c1ncc[nH]1 [TBID, 4,5,6,7-Tetrabromo-2-(1H-imidazol-2-yl)isoindoline-1,3-dione]
CK1
  pIC50: < 4.40
PRAK
  activity at 1 µM: 95%
HIPK3
  activity at 1 µM: 53%
ROCK 2
  activity at 1 µM: 117%
BRK
  activity at 1 µM: 103%
ERK8
  activity at 1 µM: 95%
DYRK2
  activity at 1 µM: 94%
MARK3
  activity at 1 µM: 115%
PKA
  activity at 1 µM: 104%
MEKK1
  activity at 1 µM: 106%
CHK2
  activity at 1 µM: 100%
EPH-B4
  activity at 1 µM: 114%
NEK2a
  activity at 1 µM: 89%
PAK4
  activity at 1 µM: 99%
p38d MAPK
  activity at 1 µM: 106%
PKCγ
  activity at 1 µM: 117%
HIPK1
  activity at 1 µM: 39%
TBK1
  activity at 1 µM: 108%
TESK1
  activity at 1 µM: 103%
JNK2
  activity at 1 µM: 110%
RIPK2
  activity at 1 µM: 102%
MARK2
  activity at 1 µM: 100%
MST2
  activity at 1 µM: 90%
TAO1
  activity at 1 µM: 110%
EPH-B1
  activity at 1 µM: 96%
TAK1
  activity at 1 µM: 78%
MAPKAP-K3
  activity at 1 µM: 98%
MNK2
  activity at 1 µM: 113%
BRSK2
  activity at 1 µM: 99%
p38b MAPK
  activity at 1 µM: 111%
TLK1
  activity at 1 µM: 107%
Lck
  activity at 1 µM: 109%
PKBa
  activity at 1 µM: 104%
SmMLCK
  activity at 1 µM: 103%
JNK3
  activity at 1 µM: 101%
RSK2
  activity at 1 µM: 101%
p38a MAPK
  activity at 1 µM: 88%
PIM1
  pIC50: < 4.40
